From patent publication US20140066385A1, “METHOD FOR TREATING CANCER BY COMBINED USE OF DRUGS” (Astellas Pharma Inc., priority 2011, published 2014)

How the values were obtained:
[1] = test system: human gastric cancer (MKN-28); assay: Example 5: FK330 with paclitaxel in MKN-28 tumor-bearing mice; type: in vivo, nude mice; details: for tumor volume on the last day of experiment: MKN-28, Day 84, mean±SEM
Protocol: Preparation of the test substances was carried out in the same manner as in Example 2.
Human gastric cancer-derived NCI-N87 (CRL-5822) was obtained from American Type Culture Collection (VA, USA), MKN-28 (JCRB0253) was obtained from Health Science Research Resources Bank (HSRRB), and AZ-521 (RCB2087) was obtained from Riken BRC. NCI-N87 and MKN-28 cells were cultured under the conditions of 37° C. and 5% CO2 by using RPMI1640 medium containing 10% heat-inactivated fetal bovine serum (FBS), and AZ-521 cells were cultured under the conditions of 37° C. and 5% CO2 by using DMEM medium containing 10% heat-inactivated FBS. The cells were harvested with trypsin and were suspended in PBS at 6×10^7 cells/mL, and the suspension was mixed with an equal amount of Matrigel (trade name) Basement Membrane Matrix (manufactured by Becton Dickinson Co., Bedford, Mass., USA).
Five-week old male nude mice (CAnN Cg-Foxn1nu/CrlCrlj(nu/nu)) were purchased from Charles River Laboratories Japan, Inc. (Japan, Kanagawa). The animals were raised under specific pathogen-free (SPF) conditions throughout the test period by feeding standard feedstuff and drinking water. The cultured cells were subcutaneously inoculated into the dorsal region of the nude mice at a concentration of 3×10^6 cells/0.1 mL/mouse. […]
(§1) Every 2 to 4 days, the body weight and the tumor diameters, determined by using a digital caliper, were measured. The tumor volume was calculated from the calculation formula for ellipsoid volume of (major axis×[minor axis]^2×0.52).
The results are expressed as the mean value (Mean)±standard error (SEM). Using the actual measured values of the tumor volume at each measurement time point, an unpaired statistical test (Student's t-test) of the difference between two groups was carried out between a single administration group and a combined use group. […]

[2] = test system: human non-small cell lung cancer (Calu-6); assay: Example 3: dose dependency of FK330 in enhancing paclitaxel in Calu-6 tumor-bearing mice; type: in vivo, nude mice; details: Day 59; for tumor volume at the end of the study: mean±SEM
Protocol: Preparation of the test substances and conditioning of the cells were carried out in the same manner as in Example 2.
Five-week old male nude mice (CAnN Cg-Foxn1nu/CrlCrlj(nu/nu)) were purchased from Charles River Laboratories Japan, Inc. (Japan, Kanagawa). The animals were raised under specific pathogen-free (SPF) conditions throughout the test period by feeding standard feedstuff and drinking water. The cultured cells were subcutaneously inoculated into the dorsal region of the nude mice at a concentration of 3×10^6 cells/0.1 mL/mouse. Nude mice which had the tumor volumes (major axis×[minor axis]^2×0.52) ranging from 123.3 mm^3 to 274.4 mm^3 were assigned by using SAS to minimize the fluctuation in the tumor volume between the groups and within the group.
The first day of administration was designated as Day 0, and observation was made until Day 59. The respective groups (n=5) were treated as follows. FK330 was orally gavaged in an amount of 5 mL/kg, and paclitaxel was administered intravenously through the tail vein in an amount of 10 mL/kg. Paclitaxel was continuously administered from Day 0 to Day 5, and then was withdrawn for 21 days. This was defined as one cycle, and administration was carried out up to two cycles.
Paclitaxel single administration group: Paclitaxel 10 mg/kg/day (continuously administered for six days from Day 0 in Cycle 1, and continuously administered for 6 days from Day 27 in Cycle 2)
FK330 30 mg/kg bid (60 mg/kg/day)+paclitaxel 10 mg/kg/day (continuously administered for 6 days from Day 0 in Cycle 1, and continuously administered for 6 days from Day 27 in Cycle 2)
FK330 60 mg/kg bid (120 mg/kg/day)+paclitaxel 10 mg/kg/day (continuously administered for 6 days from Day 0 in Cycle 1, and continuously administered for 6 days from Day 27 in Cycle 2)
FK330 100 mg/kg bid (200 mg/kg/day)+paclitaxel 10 mg/kg/day (continuously administered for 6 days from Day 0 in Cycle 1, and continuously administered for 6 days from Day 27 in Cycle 2)
FK330 was orally gavaged (5 mL/kg) twice a day at an interval of 6 to 8 hours. Paclitaxel was administered by intravenous bolus injection (10 mL/kg) through the tail vein 2 to 4 hours after the administration of FK330.
as §1

**Q.** `O=C(/C=C/c1ccc(Cl)cc1)N[C@@H](Cc1ccccn1)C(=O)NCC(=O)N1CCC(Oc2cc(C(F)(F)F)ncn2)CC1` [FK330, N^2-[(2E)-3-(4-chlorophenyl)-2-propenoyl]-N-[2-oxo-2-(4-{[6-(trifluoromethyl)pyrimidin-4-yl]oxy}piperidin-1-yl)ethyl]-3-pyridin-2-yl-L-alaninamide] was tested. Which “tumor volume on the last day of experiment” value ([1]; combined use group paclitaxel + FK330 100 mg/kg bid) did it give?
**A.** The value was 164.8±18.5 mm^3.

**Q.** And the “tumor volume decrease compared with the paclitaxel-only group” value ([1]; MKN-28, last day, FK330 100 mg/kg bid + paclitaxel, P=0.08)?
**A.** Its value is 63.7%.

**Q.** And the “tumor volume reduction ratio compared with the paclitaxel-only group” value (shortened to “tumor volume reduction ratio”) ([2]; FK330 30 mg/kg bid + paclitaxel 10 mg/kg/day)?
**A.** Its value is 41.7%.

**Q.** And the “tumor volume at the end of the study” value ([2]; FK330 30 mg/kg bid combined use group with paclitaxel 10 mg/kg/day)?
**A.** Its value is 955.9±231.0 mm^3.

**Q.** What about the “tumor volume reduction ratio” value ([2]; FK330 60 mg/kg bid + paclitaxel 10 mg/kg/day) of the same compound?
**A.** The value was 56.9%.

**Q.** And the “tumor volume at the end of the study” value ([2]; FK330 60 mg/kg bid combined use group with paclitaxel 10 mg/kg/day)?
**A.** Its value is 706.2±256.1 mm^3.

**Q.** And the “tumor volume reduction ratio” value ([2]; FK330 100 mg/kg bid + paclitaxel 10 mg/kg/day)?
**A.** Its value is 81.8%.

**Q.** And the “tumor volume at the end of the study” value ([2]; FK330 100 mg/kg bid combined use group with paclitaxel 10 mg/kg/day)?
**A.** Its value is 297.9±101.4 mm^3.

**Q.** How did the “tumor volume on the last day of experiment” value ([1]; paclitaxel-only group 10 mg/kg/day i.v., three cycles) turn out when `CC(=O)O[C@H]1C(=O)[C@@]2(C)[C@H]([C@H](OC(=O)c3ccccc3)[C@]3(O)C[C@H](OC(=O)[C@H](O)[C@@H](NC(=O)c4ccccc4)c4ccccc4)C(C)=C1C3(C)C)[C@]1(OC(C)=O)CO[C@@H]1C[C@@H]2O` [paclitaxel, reference compound] was run?
**A.** Its value is 454.1±147.5 mm^3.

**Q.** What about the “tumor volume at the end of the study” value ([2]; paclitaxel-only group, 10 mg/kg/day i.v., two cycles) of the same compound?
**A.** Its value is 1640.1±902.8 mm^3.
